Here are results for 12 molecules from ChEMBL document CHEMBL1201862, “PubChem BioAssay data set” (2004).

Among the test systems are A498; ACHN; COLO 205; HCT-116; HOP-62; M14; MDA-MB-435; MDA-N; Malme-3M; NCI-H226; NCI-H23; OVCAR-3; OVCAR-4; OVCAR-8; SW-620; U-251; UACC-257; SR; MDA-MB-231; Hs-578T.
Common to all, as to assay: NCI anticancer screen, dose series, 48 h

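Values below derive from 48-hour exposures of cells grown in 96-well plates, with endpoints linearly interpolated between the two concentrations bracketing the appropriate inhibition level. Here, GI50 denotes the concentration required for 50% inhibition of growth.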 Active and inactive are the calls of the source. No stated cut-off is given here; in the data, active = GI50 up to about 1.1 µM and inactive = higher.

As for `CC(=O)N[C@@H](Cc1ccc(O)cn1)C(=O)NCc1ccc(Cl)cc1`, the GI50 in the experiment on A498, in the experiment on ACHN, in the experiment on COLO 205, with HCT-116, with HOP-62 and in the experiment on M14 was > 100 µM (inactive) each time. For the same molecule, the GI50 in the experiment on MDA-MB-435, in the experiment on MDA-N, in the experiment on Malme-3M, in the experiment with NCI-H226, in the experiment on NCI-H23 and in the experiment on OVCAR-3 was > 100 µM (inactive) in each case. For the same molecule, the GI50 in the experiment with OVCAR-4 is > 100 µM (inactive); with OVCAR-8, > 100 µM (inactive); with SW-620 it was > 100 µM (inactive); with U-251 it was > 100 µM (inactive); in the experiment on UACC-257, 47.5 µM (inactive).

As to `CCC(O)(c1ccc(OC)cc1)C(c1ccc(OCc2ccccc2)cc1)c1ccc(OCc2ccccc2)cc1` (stereo not drawn), the GI50 in the experiment on A498, in the experiment with ACHN, with COLO 205, in the experiment with HCT-116, in the experiment on HOP-62 and with M14 was > 100 µM (inactive) in each case. For the same molecule, the GI50 in the experiment on Malme-3M, with NCI-H226, in the experiment on NCI-H23, with OVCAR-3, in the experiment on OVCAR-4 and with OVCAR-8 was > 100 µM (inactive) throughout. For the same molecule, the GI50 in the experiment on SR, in the experiment with SW-620, in the experiment on U-251 and in the experiment with UACC-257 was > 100 µM (inactive) throughout.

Consider `O=C1c2ccccc2C(=O)c2sc(Nc3ccc(Cl)cc3)nc21`, for which the GI50 in the experiment with A498 is 16.1 µM (inactive); in the experiment on ACHN, 1.57 µM (inactive); with COLO 205, 7.16 µM (inactive); in the experiment with HCT-116 it was 1.64 µM (inactive); with HOP-62, 4.68 µM (inactive); in the experiment on M14 it was 2.14 µM (inactive). Also, the GI50 in the experiment on Malme-3M was 1.96 µM (inactive); in the experiment on NCI-H226, 7.53 µM (inactive); in the experiment with NCI-H23 it was 1.55 µM (inactive); in the experiment on OVCAR-3, 1.51 µM (inactive); in the experiment with OVCAR-4 it was 1.65 µM (inactive); in the experiment with OVCAR-8 it was 1.75 µM (inactive). In addition, the GI50 is 1.86 µM (inactive) with SR, 1.09 µM (active) with SW-620, 1.62 µM (inactive) with U-251 and 1.75 µM (inactive) with UACC-257.

On to `CC(=O)c1ccc(N2CCN(C3=C(Cl)C(=O)c4c(O)ccc(O)c4C3=O)CC2)cc1`, for which the GI50 is 17.6 µM (inactive) with A498; 2.67 µM (inactive) in the experiment on COLO 205; 3.5 µM (inactive) with HCT-116; 8.95 µM (inactive) in the experiment with HOP-62; 2.21 µM (inactive) in the experiment on M14; 2.51 µM (inactive) with MDA-MB-231. Also, the GI50 is 3.24 µM (inactive) with MDA-N; 11.4 µM (inactive) in the experiment with Malme-3M; 2.92 µM (inactive) with NCI-H23; 5.19 µM (inactive) in the experiment on OVCAR-3; 3.14 µM (inactive) in the experiment on OVCAR-4; 3.86 µM (inactive) in the experiment with OVCAR-8. The GI50 in the experiment on SR was 2 µM (inactive); in the experiment with SW-620, 3.02 µM (inactive); with U-251 it was 3.4 µM (inactive); in the experiment on UACC-257, 7.6 µM (inactive).

Turning to `CC1=Nc2c(ccc3c2C(=O)c2ccccc2C3=O)NC(c2ccncc2)C1` (stereo not drawn), the GI50 in the experiment on A498 is 23.8 µM (inactive); in the experiment with ACHN, 6.75 µM (inactive); with COLO 205 it was > 10 µM (inactive); with HCT-116, 41.5 µM (inactive); with HOP-62, 35.1 µM (inactive); with M14, > 10 µM (inactive). Also, the GI50 with Malme-3M was > 10 µM (inactive); in the experiment with NCI-H226, > 10 µM (inactive); with NCI-H23, > 10 µM (inactive); with OVCAR-3 it was > 10 µM (inactive); in the experiment on OVCAR-4, > 10 µM (inactive); in the experiment with OVCAR-8, 8.55 µM (inactive). In addition, the GI50 was 0.135 µM (active) with SR, 52.5 µM (inactive) in the experiment on SW-620, > 10 µM (inactive) in the experiment with U-251 and > 10 µM (inactive) in the experiment on UACC-257.

Regarding `O=C1CCSSCCC(=O)Nc2ccccc2N1`, the GI50 with A498, in the experiment with ACHN, in the experiment on COLO 205, in the experiment with HCT-116, in the experiment with HOP-62 and with Hs-578T was > 100 µM (inactive) in each case. Also, the GI50 with M14, in the experiment on MDA-MB-231, with MDA-MB-435, with Malme-3M, in the experiment with NCI-H226 and in the experiment with NCI-H23 was > 100 µM (inactive) in each case. The GI50 in the experiment on OVCAR-3, in the experiment with OVCAR-4, in the experiment with OVCAR-8, with SR, in the experiment on SW-620 and in the experiment on U-251 was > 100 µM (inactive) each time. Also, the GI50 in the experiment with UACC-257 is > 100 µM (inactive).

With `CO[C@H](c1ccccc1)[C@H](O)[C@](O)(c1ccccc1)P(=O)(OC)OC`, the GI50 in the experiment with A498, in the experiment with ACHN, in the experiment on COLO 205, in the experiment on HCT-116, in the experiment on M14 and with MDA-MB-231 was > 100 µM (inactive) throughout. Moreover, the GI50 in the experiment on MDA-MB-435, with MDA-N, with Malme-3M, in the experiment on NCI-H226, in the experiment on NCI-H23 and in the experiment with OVCAR-3 was > 100 µM (inactive) throughout. For the same molecule, the GI50 with OVCAR-4, in the experiment with OVCAR-8, in the experiment with SR, in the experiment with SW-620, in the experiment on U-251 and with UACC-257 was > 100 µM (inactive) throughout.

As to `Cc1ccccc1NC(=O)C(=O)CC(=O)c1sc(-n2nc(-c3ccccc3)cc2-c2ccccc2)nc1C`, the GI50 in the experiment on A498, with ACHN, in the experiment with COLO 205, with HCT-116, in the experiment with HOP-62 and in the experiment with M14 was > 100 µM (inactive) each time. In addition, the GI50 in the experiment with Malme-3M, with NCI-H226, in the experiment with NCI-H23, in the experiment with OVCAR-3, in the experiment on OVCAR-4 and with OVCAR-8 was > 100 µM (inactive) each time. For the same molecule, the GI50 with SR, in the experiment on SW-620, in the experiment with U-251 and with UACC-257 was > 100 µM (inactive) each time.

`C=CCC1(CN(C)C)CC/C(=C\c2ccc3c(c2)OCO3)C1=O` (stereo not drawn): the GI50 with A498 was 33.7 µM (inactive); with ACHN, 31.6 µM (inactive); in the experiment with COLO 205, 23.7 µM (inactive); with HCT-116, 43.6 µM (inactive); in the experiment on HOP-62 it was > 100 µM (inactive); in the experiment with M14, 56.9 µM (inactive). Besides, the GI50 is > 100 µM (inactive) with Malme-3M; > 100 µM (inactive) in the experiment on NCI-H226; 65.8 µM (inactive) in the experiment with NCI-H23; 65.3 µM (inactive) in the experiment with OVCAR-3; 67.5 µM (inactive) with OVCAR-4; 48.4 µM (inactive) with OVCAR-8. The GI50 in the experiment on SR was 41 µM (inactive); with SW-620 it was 35.1 µM (inactive); in the experiment on U-251, 52.1 µM (inactive); in the experiment with UACC-257 it was 40.7 µM (inactive).

With `O=c1[nH]c(=O)n(CCOc2ccc(Cl)cc2)cc1Nc1ccccc1`, the GI50 in the experiment with A498 was > 100 µM (inactive); with ACHN it was > 100 µM (inactive); with COLO 205 it was > 100 µM (inactive); with HCT-116 it was > 100 µM (inactive); in the experiment with HOP-62, > 100 µM (inactive); in the experiment with Hs-578T, 29.2 µM (inactive). Also, the GI50 was > 100 µM (inactive) in the experiment on M14; > 100 µM (inactive) with MDA-MB-435; > 100 µM (inactive) in the experiment on MDA-N; > 100 µM (inactive) with NCI-H23; 85.3 µM (inactive) with OVCAR-3; 49 µM (inactive) in the experiment with OVCAR-4. In addition, the GI50 in the experiment with SR, in the experiment with SW-620, in the experiment on U-251 and with UACC-257 was > 100 µM (inactive) throughout.

Consider `COc1ccccc1N1CCN(CCCNC(=O)c2cc(Cl)c(N)c(Cl)c2)CC1`, for which the GI50 with A498 was 42 µM (inactive); in the experiment with ACHN, 55.2 µM (inactive); in the experiment on COLO 205 it was > 10 µM (inactive); in the experiment with HCT-116, 31 µM (inactive); in the experiment with HOP-62 it was 29.7 µM (inactive); with Hs-578T it was 67.1 µM (inactive). Besides, the GI50 in the experiment with M14 is 19.4 µM (inactive); with MDA-MB-231, 22.9 µM (inactive); in the experiment on MDA-MB-435, 40.2 µM (inactive); in the experiment with Malme-3M it was 18.8 µM (inactive); in the experiment with NCI-H226, 28.4 µM (inactive); with NCI-H23 it was 49.7 µM (inactive). For the same molecule, the GI50 is 52 µM (inactive) with OVCAR-4; 47.5 µM (inactive) with OVCAR-8; 12.7 µM (inactive) in the experiment with SR; 37.5 µM (inactive) in the experiment with SW-620; 27 µM (inactive) in the experiment on U-251; 22.8 µM (inactive) with UACC-257.

On to `CCCc1c(OC)c(=O)c2c(O)cc(OC)c3c4c(OC)cc(O)c5c(=O)c(OC)c(CCC)c(c1c23)c54`, for which the GI50 was 10.6 µM (inactive) with A498; 4.51 µM (inactive) in the experiment with ACHN; 4.35 µM (inactive) with COLO 205; 2.63 µM (inactive) in the experiment with HCT-116; 6.47 µM (inactive) with HOP-62; 2.05 µM (inactive) with M14. The GI50 was 2.46 µM (inactive) with MDA-MB-231; 1.85 µM (inactive) with MDA-MB-435; 4.05 µM (inactive) in the experiment on MDA-N; 2.43 µM (inactive) in the experiment on Malme-3M; 3.46 µM (inactive) with NCI-H226; 7.94 µM (inactive) in the experiment on NCI-H23. In addition, the GI50 in the experiment with OVCAR-3 was 3.47 µM (inactive); in the experiment with OVCAR-4, 3.72 µM (inactive); in the experiment with OVCAR-8 it was 0.944 µM (active); in the experiment with SR it was 0.31 µM (active); in the experiment on SW-620, 3.15 µM (inactive); in the experiment on U-251, 0.615 µM (active). In the experiment with UACC-257, the GI50 was 13.4 µM (inactive).
